Experimental findings from US8940720B2, “Macrocycles as factor XIa inhibitors” (Bristol-Myers Squibb Company, priority 2010, dated 2015) are described below.

The target of the experiment is purified human Factor XIa (Homo sapiens (Human), UniProt P03951). The experiment can be described thus: Factor XIa enzyme inhibition assay (chromogenic substrate S-2366). The format is biochemical. The conditions noted are these: substrate S-2366, pH 7.4. Here is the method: The effectiveness of compounds of the present invention as inhibitors of the coagulation Factors XIa, VIIa, IXa, Xa, XIIa, plasma kallikrein or thrombin, can be determined using a relevant purified serine protease, respectively, and an appropriate synthetic substrate. The rate of hydrolysis of the chromogenic or fluorogenic substrate by the relevant serine protease was measured both in the absence and presence of compounds of the present invention. […] A decrease in the rate of absorbance or fluorescence change in the presence of inhibitor is indicative of enzyme inhibition. Such methods are known to one skilled in the art. The results of this assay are expressed as the inhibitory constant, Ki.
Sequence of purified human Factor XIa (P03951 388-625): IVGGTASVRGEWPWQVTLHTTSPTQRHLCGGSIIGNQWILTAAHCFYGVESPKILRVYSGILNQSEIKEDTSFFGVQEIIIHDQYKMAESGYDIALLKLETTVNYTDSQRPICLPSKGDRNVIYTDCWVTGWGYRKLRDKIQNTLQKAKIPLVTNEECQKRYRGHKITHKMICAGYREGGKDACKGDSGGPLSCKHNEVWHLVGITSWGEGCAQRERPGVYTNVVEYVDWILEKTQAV
Sequence of purified human Factor XIa (P03951 19-387 partner): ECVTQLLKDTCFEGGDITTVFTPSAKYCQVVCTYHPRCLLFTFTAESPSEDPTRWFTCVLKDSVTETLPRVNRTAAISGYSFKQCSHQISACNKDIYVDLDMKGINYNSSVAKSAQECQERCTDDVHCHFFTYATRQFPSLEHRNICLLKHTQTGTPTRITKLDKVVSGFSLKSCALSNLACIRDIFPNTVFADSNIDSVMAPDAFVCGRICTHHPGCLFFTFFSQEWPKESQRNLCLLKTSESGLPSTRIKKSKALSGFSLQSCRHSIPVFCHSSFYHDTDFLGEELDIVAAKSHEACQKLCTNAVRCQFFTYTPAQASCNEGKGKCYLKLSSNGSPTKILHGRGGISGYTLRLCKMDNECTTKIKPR
Values of Ki were determined by allowing the protease to react with the substrate in the presence of the inhibitor. Reactions were allowed to go for periods of 20-180 minutes (depending on the protease) and the velocities (rate of absorbance or fluorescence change versus time) were measured. The following relationships were used to calculate Ki values: (vo−vs)/vs=I/(Ki(1+S/Km)) for a competitive inhibitor with one binding site; or vs/vo=A+((B−A)/1+((IC50/(I)n))); and Ki=IC50/(1+S/Km) for a competitive inhibitor where: […]

SMILES strings stand for the structures. pKi: −log10 of the molar value. Where a name gives a salt, the structure may show the parent alone.

One may read the pKi as −log10 of the Ki, conventionally taken in molar units. Higher therefore signals a small Ki. The compound `CCOC(=O)[C@H]1CCCC[C@H](NC(=O)/C=C/c2cc(Cl)ccc2-n2cnnn2)c2nc(c(C)[nH]2)-c2ccc(NC(=O)OC)cc2N1` [Example I-242, (9R,14S)-14-[(E)-3-(5-Chloro-2-tetrazol-1-yl-phenyl)-acryloylamino]-5-methoxycarbonylamino-17-methyl-8,16,18-triaza-tricyclo[13.2.1.0^2,7]octadeca-1(17),2,4,6,15(18)-pentaene-9-carboxylic acid ethyl ester, bis-trifluoroacetic acid salt] had a pKi of 6.34.
As for `CCOC(=O)C1CCCCC(NC(=O)/C=C/c2cc(Cl)ccc2-n2cnnn2)c2cc(cc(=O)[nH]2)-c2ccc(NC(=O)OC)cc2N1` (stereo not drawn) [II-62], the pKi is over 8.30.
In the case of `COC(=O)Nc1ccc2c(c1)NS(=O)(=O)CC=CC[C@H](NC(=O)/C=C/c1cc(Cl)ccc1-n1cnnn1)c1nc-2c[nH]1` (stereo in doubt) [Example 19, {(E)-(S)-14-[(E)-3-(5-Chloro-2-tetrazol-1-yl-phenyl)-acryloylamino]-9,9-dioxo-9λ^6-thia-8,16,18-triaza-tricyclo[13.2.1.0^2,7]octadeca-1(17),2,4,6,11,15(18)-hexaen-5-yl}-carbamic acid methyl ester] it was 7.02.
Take `COC(=O)Nc1ccc2c(c1)NC(=O)CC/C=C/CC(NC(=O)/C=C/c1cc(Cl)ccc1-n1cnnn1)c1cccc-2c1` (stereo not drawn) [Example 93, {(E)-15-[(E)-3-(5-Chloro-2-tetrazol-1-yl-phenyl)-acryloylamino]-9-oxo-8-aza-tricyclo[14.3.1.0^2,7]icosa-1(20),2,4,6,12,16,18-heptaen-5-yl}-carbamic acid methyl ester]: the pKi was over 8.30.
In turn, `COC(=O)Nc1ccc2c(c1)NC(C(F)(F)F)CCCC[C@H](NC(=O)c1ccc(C(=N)N)cc1)c1cc-2ccn1` (stereo partly drawn) [II-15] gave a pKi of 5.38.
In the case of `Cc1cc(F)c(C(=O)N[C@H]2C/C=C/CCC(=O)Nc3cc(NC(=O)OCCN(C)C)ccc3-c3nc2[nH]c3Cl)c(F)c1` [Example I-183, [(E)-(S)-18-Chloro-15-(2,6-difluoro-4-methyl-benzoylamino)-9-oxo-8,17,19-triaza-tricyclo[14.2.1.0^2,7]nonadeca-1(18),2,4,6,12,16(19)-hexaen-5-yl]-carbamic acid 2-dimethylamino-ethyl ester, 2 TFA] it was 5.31; in that of `COC(=O)Nc1ccc2c(c1)/N=C/CCCC[C@H](NC(=O)/C=C/c1cc(Cl)ccc1-n1cnnn1)c1nc-2c(F)[nH]1` [Example I-107, {(E)-(S)-14-[(E)-3-(5-Chloro-2-tetrazol-1-yl-phenyl)-acryloylamino]-17-fluoro-8,16,18-triaza-tricyclo[13.2.1.0^2,7]octadeca-1(17),2,4,6,8,15(18)-hexaen-5-yl}-carbamic acid methyl ester, trifluoroacetic acid salt], 7.54.
The compound `COC(=O)Nc1ccc2c(c1)NC(=O)C(C)CCC[C@H](NC(=O)c1c(F)cc3c(ccn3C)c1F)c1nc-2c(Cl)[nH]1` (stereo partly drawn) [Example I-59] showed a pKi of over 8.30.
The compound `COC(=O)Nc1ccc2c(c1)NC(=O)C/C=C/CC(NC(=O)/C=C/c1cc(Cl)ccc1-n1cnnn1)c1cc-2nc(C)n1` (stereo not drawn) [Example 167, {(E)-14-[(E)-3-(5-Chloro-2-tetrazol-1-yl-phenyl)-acryloylamino]-17-methyl-9-oxo-8,16,18-triaza-tricyclo[13.3.1.0^2,7]nonadeca-1(19),2,4,6,11,15,17-heptaen-5-yl}-carbamic acid methyl ester] showed a pKi of 6.80.
`COC(=O)Nc1ccc2c(c1)NC(=O)CC/C=C/C[C@H](NC(=O)/C=C/c1cccc(Cl)c1)c1nc-2c(Cl)[nH]1` [Example I-309]: the pKi is 8.05.
In the case of `COC(=O)Nc1ccc2c(c1)NC(=O)CCCC[C@H](NC(=O)c1ccc(C(=N)N)cc1)c1nc-2c[nH]1` [Example I-4] it was over 8.30.
Turning to `COC(=O)Nc1ccc2c(c1)N[C@@H](C(F)(F)F)CCCC[C@H](NC(=O)/C=C/c1cc(Cl)ccc1-n1cnnn1)c1nc-2c(C)[nH]1` [Example I-70], the pKi was 6.57.
In the case of `COC(=O)Nc1ccc2c(c1)NCCCCC[C@H](NC(=O)/C=C/c1cc(Cl)ccc1-n1cnnn1)c1nc-2c[nH]1` [Example 11, {(S)-14-[(E)-3-(5-Chloro-2-tetrazol-1-yl-phenyl)-acryloylamino]-8,16,18-triaza-tricyclo[13.2.1.0^2,7]octadeca-1(17),2,4,6,15(18)-pentaen-5-yl}-carbamic acid methyl ester], the pKi was 8.22.
`COC(=O)Nc1ccc2c(c1)NC(=O)CC/C=C/CC(NC(=O)/C=C/c1cc(Cl)ccc1-n1cnnn1)c1cc(Cl)nnc1-2` (stereo not drawn) [Example 89, Methyl((E)-3-chloro-5-((E)-3-(5-chloro-2-(1H-tetrazol-1-yl)phenyl)acrylamido)-11-oxo-5,6,9,10,11,12-hexahydrobenzo[b]pyridazino[3,4-d][1]azacyclododecin-14-yl)carbamate]: the pKi is 5.98.
For `CCOC(=O)[C@@H]1CCCC[C@H](NC(=O)/C=C/c2cc(Cl)ccc2-n2cnnn2)c2nc(c[nH]2)-c2ccc(NC(=O)OC)cc2N1` [Example I-67, (9S,14S)-14-[(E)-3-(5-Chloro-2-tetrazol-1-yl-phenyl)-acryloylamino]-5-methoxycarbonylamino-8,16,18-triaza-tricyclo[13.2.1.0^2,7]octadeca-1(17),2,4,6,15(18)-pentaene-9-carboxylic acid ethyl ester, 2 TFA salt], the pKi was 6.69.
Compound `COC(=O)Nc1ccc2c(c1)NC(C(N)=O)C(C)CCC[C@H](NC(=O)/C=C/c1cc(Cl)ccc1-n1cnnn1)c1nc-2c[nH]1` (stereo partly drawn) [Example I-114] gave a pKi of 6.53.
The value for `COC(=O)Nc1ccc2c(c1)NC(=O)CCCC[C@H](NC(=O)/C=C/c1cc(Cl)ccc1-n1ccnn1)c1nc-2c[nH]1` [Example I-5] was over 8.30; that for `COC(=O)Nc1ccc2c(c1)N[C@@H](CO)CCCC[C@H](NC(=O)/C=C/c1cc(Cl)ccc1-n1cnnn1)c1nc-2c[nH]1` [Example I-77, {(9R,14S)-14-[(E)-3-(5-Chloro-2-tetrazol-1-yl-phenyl)-acryloylamino]-9-hydroxymethyl-8,16,18-triaza-tricyclo[13.2.1.0^2,7]octadeca-1(17),2,4,6,15(18)-pentaen-5-yl}-carbamic acid methyl ester, 2 TFA salt] was over 8.30; that for `COC(=O)Nc1ccc2c(c1)NC(=O)CC/C=C/C[C@H](NC(=O)c1ccc(C(=N)N)cc1)c1cc-2ccn1` [II-3] was over 8.30.
`COC(=O)Nc1ccc2c(c1)NCCCCC[C@H](NC(=O)/C=C/c1c(C(C)=O)ccc(Cl)c1F)c1nc-2c(C#N)[nH]1` [Example I-265]: the pKi is 6.88.
In turn, `COC(=O)Nc1ccc2c(c1)NC(=O)CCCC[C@H](NC(=O)c1cn(-c3cccc(Cl)c3)nn1)c1nc-2c[nH]1` [Example I-10] showed a negative logarithm of the Ki (pKi) of 6.66.
`COC(=O)Nc1ccc2c(c1)NC(=O)CC/C=C/C[C@H](NC(=O)c1ccc3c(c1)CCC[C@@H]3N)c1nc-2c[nH]1` [Example I-153] gave a pKi of 5.78.
`CCOC(=O)C1CCCC[C@H](NC(=O)/C=C/c2cc(Cl)ccc2-n2cnnn2)c2cc(ccn2)-c2ccc(NC(=O)OC)cc2N1` (stereo partly drawn) [II-18] gave a pKi of 6.24.
`COC(=O)Nc1ccc2c(c1)N(C(=O)OC)CCCCC[C@H](NC(=O)/C=C/c1cc(Cl)ccc1-n1cnnn1)c1nc-2c[nH]1` [Example I-108] showed a pKi of 5.41.
In the case of `COC(=O)Nc1ccc2c(c1)NC(=O)CC/C=C/C[C@H](NC(=O)/C=C/c1c(C(F)(F)F)ccc(Cl)c1F)c1nc-2c(Cl)[nH]1` [Example I-311] it was over 8.30; in that of `COC(=O)Nc1ccc2c(c1)NCCCCC[C@H](NC(=O)/C=C/c1cc(Cl)ccc1-n1cnnn1)c1nc-2c(C(=O)N(C)C)[nH]1` [Example I-299], 7.72.
Turning to `NC[C@H]1CC[C@H](C(=O)N[C@H]2C/C=C/CCCc3ccccc3-c3c[nH]c2n3)CC1` [Example 3], the pKi is 5.21.
Take `O=C(/C=C/c1cc(Cl)ccc1-n1cnnn1)N[C@H]1CCCCC(=O)Nc2cnccc2-c2ccnc1c2` [Example 138, (E)-3-(5-Chloro-2-tetrazol-1-yl-phenyl)-N-((S)-9-oxo-5,8,16-triaza-tricyclo[13.3.1.0^2,7]nonadeca-1(19),2,4,6,15,17-hexaen-14-yl)-acrylamide, 2 TFA salt]: the pKi is 7.70.
On to `COC(=O)Nc1ccc2c(c1)NC(=O)CC/C=C/C[C@H](NC(=O)[C@H]1CC[C@H](CN)CC1)c1cc-2ccn1` [Example 90, {(E)-(S)-15-[(4-Aminomethyl-cyclohexanecarbonyl)-amino]-9-oxo-8,17-diaza-tricyclo[14.3.1.0^2,7]icosa-1(20),2(7),3,5,12,16,18-heptaen-5-yl}-carbamic acid methyl ester], for which the pKi is over 8.30.
Turning to `COC(=O)Nc1ccc2c(c1)NC(=O)CCCC[C@H](NC(=O)c1cc(-c3cccc(Cl)c3)no1)c1nc-2c[nH]1` [Example I-9], the pKi was 5.73.
The value for `COC(=O)Nc1ccc2c(c1)NC(=O)CC/C=C/C[C@H](NC(=O)c1ccc3c(c1)CCC[C@H]3N)c1nc-2c[nH]1` [Example I-152] was 7.68; that for `COC(=O)Nc1ccc2c(c1)N[C@@H](C(=O)N1CCN(C)CC1)CCCC[C@H](NC(=O)/C=C/c1cc(Cl)ccc1-n1cnnn1)c1cc-2ccn1` [II-35] was over 8.30.
Regarding `O=C(/C=C/c1cc(Cl)ccc1-n1cnnn1)N[C@H]1C/C=C/CCC(=O)Nc2ccc(F)cc2-c2nc1[nH]c2Cl` [Example I-227], the pKi was over 8.30.
